{
  "source": "patent US20100119512A1",
  "about": "“METHODS OF DIAGNOSING, TREATING, AND PREVENTING INCREASED VASCULAR PERMEABILITY” (Joslin Diabetes Center, priority 2007, published 2010)",
  "key": {"[1]": {"test_system": "prekallikrein (PK) activation by FXII", "assay": "PK activation by FXII in the presence of HK, fluorogenic kallikrein substrate", "assay_type": "biochemical, human", "conditions": "for effect on kallikrein activation in vitro: PK activation by FXII in the presence of HK", "method": "FIG. 2 is a line graph illustrating the effect of varying concentrations of C1-INH on PK activation by FXII in the presence of HK. Kallikrein activity was measured as cleavage of synthetic fluorogenic kallikrein substrate (0.4 mM) on a microplate reader at 37° C. at 15 minutes (means±s.e.m.; n=4).\nFIG. 3 is line graph illustrating the effect of varying concentrations of anti-PK antibody on PK activation by FXII in the presence of HK (means±s.e.m. n=5-6).\nThe effects of C1-INH and anti-PK antibody on the kinetics of PK activation by factor XII (FXII) were monitored in vitro using a fluorescent kallikrein substrate. Fluorogenic kallikrein substrate (H-D-Val-Leu-Arg-AFC; Calbiochem) was used to quantify kallikrein enzymatic activity."}, "[2]": {"test_system": "retinal vascular permeability", "conditions": "rats, cited from earlier work"}},
  "data": [
    {"molecule": "CA-I: human erythrocyte CA-I (Sigma), carbonic anhydrase 1", "values": [
      {"measurement": "effect on kallikrein activation in vitro", "setting": "[1]", "result": "Neither CA-I or bicarbonate ion affected"},
      {"measurement": "effect of intravitreal injection on retinal vascular permeability", "setting": "[2]; intravitreal", "result": "increased"}
    ]},
    {"molecule": "CC(=O)Nc1nnc(S(N)(=O)=O)s1", "note": "[acetazolamide, reference compound]", "values": [
      {"measurement": "effect on increased retinal permeability induced by transplant of vitreous from patients with advanced diabetic retinopathy", "setting": "[2]", "result": "blocked"}
    ]},
    {"molecule": "O=C(O)O", "note": "[bicarbonate ion]", "values": [
      {"measurement": "effect on kallikrein activation in vitro", "setting": "[1]", "result": "Neither CA-I or bicarbonate ion affected"}
    ]},
    {"molecule": "C1-INH: C1 inhibitor; binds covalently to the active site of FXII (protein, UniProt P05155 23-500, looked up) Plasma protease C1 inhibitor: NPNATSSSSQDPESLQDRGEGKVATTVISKMLFVEPILEVSSLPTTNSTTNSATKITANTTDEPTTQPTTEPTTQPTIQPTQPTTQLPTDSPTQPTTGSFCPGPVTLCSDLESHSTEAVLGDALVDFSLKLYHAFSAMKKVETNMAFSPFSIASLLTQVLLGAGENTKTNLESILSYPKDFTCVHQALKGFTTKGVTSVSQIFHSPDLAIRDTFVNASRTLYSSSPRVLSNNSDANLELINTWVAKNTNNKISRLLDSLPSDTRLVLLNAIYLSAKWKTTFDPKKTRMEPFHFKNSVIKVPMMNSKKYPVAHFIDQTLKAKVGQLQLSHNLSLVILVPQNLKHRLEDMEQALSPSVFKAIMEKLEMSKFQPTLLTLPRIKVTTSQDMLSIMEKLEFFDFSYDLNLCGLTEDPDLQVSAMQHQTVLELTETGVEAAAASAISVARTLLVFEVQQPFLFVLWDQQHKFPVFMGRVYDPRA", "values": [
      {"measurement": "effect on PK activation (kallikrein activity)", "setting": "[1]; varying concentrations, FXII and HK present, fluorogenic kallikrein substrate 0.4 mM, 37° C., 15 minutes", "result": "inhibited"},
      {"measurement": "effect on CA-1-induced retinal vascular permeability", "setting": "[2]; intravitreal CA-1", "result": "blocked"}
    ]}
  ]
}
